Measured values as given in ChEMBL document CHEMBL1145933, “Novel sst(4)-selective somatostatin (SRIF) agonists. 1. Lead identification using a betide scan” (J Med Chem, 2003).
Where a SMILES comes first, the peptide text is derived from it. Bridges are numbered along the chain shown (N, C = ends). [ ]: non-standard residue; d: D form.

Experiments:
[1] = molecular target: Somatostatin receptor type 4 (Homo sapiens, UniProt P31391); test: Binding affinity towards human Somatostatin receptor type 4 using 125I-[Leu,DTrp,Tyr]SRIF-28 as radioligand
Chain of Somatostatin receptor type 4 (P31391 whole entry): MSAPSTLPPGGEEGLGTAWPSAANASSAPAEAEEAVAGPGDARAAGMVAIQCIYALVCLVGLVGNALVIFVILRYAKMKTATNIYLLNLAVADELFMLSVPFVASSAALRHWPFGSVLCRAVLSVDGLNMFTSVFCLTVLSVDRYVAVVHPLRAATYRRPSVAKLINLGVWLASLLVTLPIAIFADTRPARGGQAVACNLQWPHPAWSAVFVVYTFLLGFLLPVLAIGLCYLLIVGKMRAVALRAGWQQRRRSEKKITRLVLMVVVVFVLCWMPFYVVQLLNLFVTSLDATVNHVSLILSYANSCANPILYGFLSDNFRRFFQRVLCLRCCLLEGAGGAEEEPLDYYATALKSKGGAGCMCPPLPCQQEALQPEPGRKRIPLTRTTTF

[2] = molecular target: Somatostatin receptor type 2 (Homo sapiens, UniProt P30874); test: Binding affinity towards human Somatostatin receptor type 2 using 125I-[Leu,DTrp,Tyr]SRIF-28 as radioligand
Chain of Somatostatin receptor type 2 (P30874 whole entry): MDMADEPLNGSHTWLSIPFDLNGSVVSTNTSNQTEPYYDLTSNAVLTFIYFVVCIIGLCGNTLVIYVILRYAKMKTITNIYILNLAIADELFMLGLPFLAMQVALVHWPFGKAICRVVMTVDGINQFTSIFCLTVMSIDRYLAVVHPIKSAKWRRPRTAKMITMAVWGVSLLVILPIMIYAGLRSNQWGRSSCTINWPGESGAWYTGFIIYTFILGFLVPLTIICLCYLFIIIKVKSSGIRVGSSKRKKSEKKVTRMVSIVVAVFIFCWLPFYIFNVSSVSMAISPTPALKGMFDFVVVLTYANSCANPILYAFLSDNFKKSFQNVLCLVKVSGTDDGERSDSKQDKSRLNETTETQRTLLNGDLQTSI

[3] = molecular target: Somatostatin receptor type 3 (Homo sapiens, UniProt P32745); test: Binding affinity towards human Somatostatin receptor type 3 using 125I-[Leu,DTrp,Tyr]SRIF-28 as radioligand
Chain of Somatostatin receptor type 3 (P32745 whole entry): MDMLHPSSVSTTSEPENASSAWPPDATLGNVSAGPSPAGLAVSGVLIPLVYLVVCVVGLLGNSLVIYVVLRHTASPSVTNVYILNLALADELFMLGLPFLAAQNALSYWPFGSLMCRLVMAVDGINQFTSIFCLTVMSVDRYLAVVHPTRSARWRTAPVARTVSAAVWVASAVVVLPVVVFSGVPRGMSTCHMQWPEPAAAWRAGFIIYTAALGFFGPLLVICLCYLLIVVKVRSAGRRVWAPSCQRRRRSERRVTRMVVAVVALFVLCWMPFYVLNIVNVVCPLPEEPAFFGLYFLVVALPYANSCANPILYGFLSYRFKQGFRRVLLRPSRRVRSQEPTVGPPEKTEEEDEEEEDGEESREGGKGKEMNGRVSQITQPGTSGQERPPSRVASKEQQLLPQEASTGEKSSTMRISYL

[4] = molecular target: Somatostatin receptor type 1 (Homo sapiens, UniProt P30872); test: Binding affinity towards human Somatostatin receptor type 1 using 125I-[Leu,DTrp,Tyr]SRIF-28 as radioligand
Chain of Somatostatin receptor type 1 (P30872 whole entry): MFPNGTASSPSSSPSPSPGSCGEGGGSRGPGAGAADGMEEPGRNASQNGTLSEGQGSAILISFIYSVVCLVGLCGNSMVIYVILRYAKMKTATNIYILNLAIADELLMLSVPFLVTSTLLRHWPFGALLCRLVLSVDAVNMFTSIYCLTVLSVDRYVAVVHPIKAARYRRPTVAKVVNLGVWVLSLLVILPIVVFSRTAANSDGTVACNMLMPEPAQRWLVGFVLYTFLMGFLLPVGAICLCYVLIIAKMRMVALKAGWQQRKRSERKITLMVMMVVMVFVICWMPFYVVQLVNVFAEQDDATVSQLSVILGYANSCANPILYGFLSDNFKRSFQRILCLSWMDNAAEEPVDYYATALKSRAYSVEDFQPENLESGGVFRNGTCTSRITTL

[5] = molecular target: Somatostatin receptor type 5 (Homo sapiens, UniProt P35346); test: Binding affinity towards human Somatostatin receptor type 5 using 125I-[Leu,DTrp,Tyr]SRIF-28 as radioligand
Chain of Somatostatin receptor type 5 (P35346 whole entry): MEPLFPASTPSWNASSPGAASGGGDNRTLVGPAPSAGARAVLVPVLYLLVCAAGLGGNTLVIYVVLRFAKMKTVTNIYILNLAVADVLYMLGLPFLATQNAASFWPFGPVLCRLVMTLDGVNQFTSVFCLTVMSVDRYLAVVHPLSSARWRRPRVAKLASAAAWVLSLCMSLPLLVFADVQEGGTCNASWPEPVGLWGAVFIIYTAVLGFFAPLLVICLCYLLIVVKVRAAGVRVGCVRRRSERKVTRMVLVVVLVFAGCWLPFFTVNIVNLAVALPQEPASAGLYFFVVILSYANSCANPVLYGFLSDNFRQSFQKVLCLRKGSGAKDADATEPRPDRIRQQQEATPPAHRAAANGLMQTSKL

SMILES	IC50 [1]	IC50 [2]	IC50 [3]	IC50 [4]	IC50 [5]
C[C@@H](O)[C@@H]1NC(=O)[C@@H](N(C)C(=O)CCN)NC(=O)[C@@H](Cc2c[nH]c3ccccc23)NC(=O)[C@H](Cc2ccccc2)NC(=O)[C@H](Cc2ccccc2)NC(=O)[C@@H](N)CSSC[C@@H](C(=O)O)NC(=O)[C@H](Cc2ccccc2)NC1=O	429 nM	> 10000 nM	> 1000 nM	> 10000 nM	> 1000 nM
C[C@@H](O)[C@@H]1NC(=O)[C@H](CCCCN)NC(=O)[C@@H](Cc2c[nH]c3ccccc23)NC(=O)[C@H](Cc2ccccc2)NC(=O)[C@H](Cc2ccccc2)NC(=O)[C@@H](N)CSSC[C@@H](C(=O)O)NC(=O)[C@@H](N(C)C(=O)c2ccccc2)NC1=O	80 nM	> 1000 nM	> 1000 nM	> 10000 nM	> 1000 nM
COC(=O)[C@H](CCCN=C(N)N)NC(=O)CCCc1c(-c2ccccc2)[nH]c2c(F)cc(F)cc12		> 1000 nM	> 1000 nM	> 1000 nM	> 10000 nM
C[C@@H](O)[C@@H]1NC(=O)[C@H](CCCCN)NC(=O)[C@@H](Cc2c[nH]c3ccccc23)NC(=O)[C@H](Cc2ccccc2)NC(=O)[C@H](Cc2ccccc2)NC(=O)[C@@H](N)CSSC[C@@H](C(=O)O)NC(=O)[C@H](N(C)C(=O)c2ccccc2)NC1=O	6.9 nM	455 nM	235 nM	> 10000 nM	220 nM
C[C@@H](O)[C@@H]1NC(=O)[C@H](N(C)C(=O)CCN)NC(=O)[C@@H](Cc2c[nH]c3ccccc23)NC(=O)[C@H](Cc2ccccc2)NC(=O)[C@H](Cc2ccccc2)NC(=O)[C@@H](N)CSSC[C@@H](C(=O)O)NC(=O)[C@H](Cc2ccccc2)NC1=O	> 1000 nM	> 1000 nM	> 1000 nM	> 1000 nM	> 1000 nM
C[C@@H](O)[C@@H]1NC(=O)[C@H](CCCCN)NC(=O)[C@H](Cc2c[nH]c3ccccc23)NC(=O)[C@H](Cc2ccccc2)NC(=O)[C@H](Cc2ccccc2)NC(=O)[C@@H](N)CSSC[C@@H](C(=O)O)NC(=O)[C@H](Cc2ccccc2)NC1=O (H-CFFWKTFC-OH; disulfide 1-8)	1.8 nM	41 nM		27 nM	46 nM
C[C@@H](O)[C@@H]1NC(=O)[C@H](CCCCN)NC(=O)[C@@H](Cc2c[nH]c3ccccc23)NC(=O)[C@H](Cc2ccccc2)NC(=O)[C@H](Cc2ccccc2)NC(=O)[C@@H](N)CSSC[C@@H](C(=O)O)NC(=O)[C@H](Cc2ccccc2)NC1=O (H-CFF[dW]KTFC-OH; disulfide 1-8)	0.7 nM	130 nM		5.3 nM	14 nM
C[C@@H](O)[C@@H]1NC(=O)[C@@H](NC(=O)CCN)NC(=O)[C@@H](Cc2c[nH]c3ccccc23)NC(=O)[C@H](Cc2ccccc2)NC(=O)[C@H](Cc2ccccc2)NC(=O)[C@@H](N)CSSC[C@@H](C(=O)O)NC(=O)[C@H](Cc2ccccc2)NC1=O (stereo in doubt; 16)	> 10000 nM	> 1000 nM	> 1000 nM	> 10000 nM	> 10000 nM
C[C@@H](O)[C@@H]1NC(=O)[C@@H](NC(=O)CCN)NC(=O)[C@@H](Cc2c[nH]c3ccccc23)NC(=O)[C@H](Cc2ccccc2)NC(=O)[C@H](Cc2ccccc2)NC(=O)[C@@H](N)CSSC[C@@H](C(=O)O)NC(=O)[C@H](Cc2ccccc2)NC1=O (stereo in doubt; 17)	> 1000 nM	> 1000 nM	> 1000 nM	> 10000 nM	> 10000 nM
CN(C(=O)CO)[C@H]1NC(=O)[C@H](CCCCN)NC(=O)[C@@H](Cc2c[nH]c3ccccc23)NC(=O)[C@H](Cc2ccccc2)NC(=O)[C@H](Cc2ccccc2)NC(=O)[C@@H](N)CSSC[C@@H](C(=O)O)NC(=O)[C@H](Cc2ccccc2)NC1=O (stereo in doubt; 20)	6.5 nM	> 1000 nM	> 1000 nM	45 nM	211 nM
CN(C(=O)CO)[C@H]1NC(=O)[C@H](CCCCN)NC(=O)[C@@H](Cc2c[nH]c3ccccc23)NC(=O)[C@H](Cc2ccccc2)NC(=O)[C@H](Cc2ccccc2)NC(=O)[C@@H](N)CSSC[C@@H](C(=O)O)NC(=O)[C@H](Cc2ccccc2)NC1=O (stereo in doubt; 21)	38 nM	> 1000 nM	> 1000 nM	860 nM	389 nM

Results, then the molecule that gave them:

IC50 [1]	IC50 [2]	IC50 [3]	IC50 [4]	IC50 [5]	SMILES
5.4 nM	> 1000 nM	403 nM	> 10000 nM	> 1000 nM	C[C@@H](O)[C@@H]1NC(=O)[C@H](CCCCN)NC(=O)[C@H](Cc2c[nH]c3ccccc23)NC(=O)[C@H](N(C)C(=O)c2ccccc2)NC(=O)[C@H](Cc2ccccc2)NC(=O)[C@@H](N)CSSC[C@@H](C(=O)O)NC(=O)[C@H](Cc2ccccc2)NC1=O
14 nM	374 nM	> 10000 nM	667 nM	> 1000 nM	C[C@@H](O)[C@@H]1NC(=O)[C@H](CCCCN)NC(=O)[C@@H](Cc2c[nH]c3ccccc23)NC(=O)[C@H](Cc2ccccc2)NC(=O)[C@H](N(C)C(=O)c2ccccc2)NC(=O)[C@@H](N)CSSC[C@@H](C(=O)O)NC(=O)[C@H](Cc2ccccc2)NC1=O (stereo in doubt; 4)
> 1000 nM	> 1000 nM		> 10000 nM		C[C@@H](O)[C@@H]1NC(=O)[C@H](CCCCN)NC(=O)[C@@H](Cc2c[nH]c3ccccc23)NC(=O)[C@H](Cc2ccccc2)NC(=O)[C@H](N(C)C(=O)c2ccccc2)NC(=O)[C@@H](N)CSSC[C@@H](C(=O)O)NC(=O)[C@H](Cc2ccccc2)NC1=O (stereo in doubt; 5)
133 nM	> 1000 nM	725 nM	> 10000 nM	> 1000 nM	C[C@@H](O)[C@@H]1NC(=O)[C@H](CCCCN)NC(=O)[C@@H](Cc2c[nH]c3ccccc23)NC(=O)[C@H](N(C)C(=O)c2ccccc2)NC(=O)[C@H](Cc2ccccc2)NC(=O)[C@H](N)CSSC[C@@H](C(=O)O)NC(=O)[C@H](Cc2ccccc2)NC1=O (stereo in doubt; 7)
5.2 nM	460 nM	447 nM		768 nM	C[C@@H](O)[C@@H]1NC(=O)[C@H](CCCCN)NC(=O)[C@@H](Cc2c[nH]c3ccccc23)NC(=O)[C@H](N(C)C(=O)c2ccccc2)NC(=O)[C@H](Cc2ccccc2)NC(=O)[C@H](N)CSSC[C@@H](C(=O)O)NC(=O)[C@H](Cc2ccccc2)NC1=O (stereo in doubt; 8)
153 nM		> 1000 nM			C[C@@H](O)[C@@H]1NC(=O)[C@H](CCCCN)NC(=O)[C@@H](Cc2c[nH]c3ccccc23)NC(=O)[C@H](N(C)C(=O)c2ccccc2)NC(=O)[C@H](Cc2ccccc2)NC(=O)[C@H](N)CSSC[C@@H](C(=O)O)NC(=O)[C@H](Cc2ccccc2)NC1=O (stereo in doubt; 9)
3.4 nM	533 nM	382 nM	> 1000 nM	460 nM	C[C@@H](O)[C@@H]1NC(=O)[C@H](CCCCN)NC(=O)[C@@H](Cc2c[nH]c3ccccc23)NC(=O)[C@H](N(C)C(=O)c2ccccc2)NC(=O)[C@H](Cc2ccccc2)NC(=O)[C@H](N)CSSC[C@@H](C(=O)O)NC(=O)[C@H](Cc2ccccc2)NC1=O (stereo in doubt; 10)
31 nM		136 nM			C[C@@H](O)[C@@H]1NC(=O)[C@H](CCCCN)NC(=O)[C@@H](Cc2c[nH]c3ccccc23)NC(=O)[C@H](N(C)C(=O)c2ccccc2)NC(=O)[C@H](Cc2ccccc2)NC(=O)[C@H](N)CSSC[C@@H](C(=O)O)NC(=O)[C@H](Cc2ccccc2)NC1=O (stereo in doubt; 11)
